The results in this text go back to patent US20260193244A1 (Protego Biopharma, Inc., priority 2022, published 2026).

This test has as its system IRE1-XBP1s (HEK293 T-REx cells stably expressing the XBP1-RLuc splicing reporter). Put plainly: IRE1-XBP1s activation Assay (XBP1-RLuc splicing reporter, luminescence relative to thapsigargin, with or without IRE1 inhibitor 4μ8C). The conditions noted are these: 18 h, compound 10 μM, luminescence as percentage signal relative to thapsigargin (Tg) (500 nM, 18 h). Format: cell-based. Here is the method:
IRE1-XBP1s activation Assay: HEK293 T-REx cells stably expressing the XBP1-RLuc splicing reporter were treated with an IRE1-XBP1s activator provided herein (10 μM) in the presence or absence of the IRE1 active site inhibitor 4μ8C (32 μM) for 18 h. Luminescence was shown as the percentage signal relative to thapsigargin (Tg) (500 nM, 18 h).
On to `Cc1ccc(OC2CCC23CN(C(=O)Cn2cc(NC(=O)C4CNc5ccccc5O4)cn2)C3)cc1` (stereo not drawn) [Compound 193], for which the activation at 10 µM is under 30%.
As for `Cc1ccc(OC2CCCN(C(=O)Cn3cc(NC(=O)CCC4(c5ccccc5F)CC4)cn3)C2)cc1` (stereo not drawn) [Compound 100, 3-(1-(2-fluorophenyl)cyclopropyl)-N-(1-(2-oxo-2-(3-(p-tolyloxy)piperidin-1-yl)ethyl)-1H-pyrazol-4-yl)propanamide], the figure is under 30%.
`Cc1ccc(O[C@H]2CCCN(C(=O)Cn3cc(NC(=O)C4CC(Oc5ccncc5)C4)cn3)C2)cc1` (stereo partly drawn) [Compound 152] registered an activation at 10 µM of at least 50%.
`Cc1ccc(OC2(C)CCCN(C(=O)Cn3cc(NC(=O)CCOc4ccccc4F)cn3)C2)cc1` (stereo not drawn) [Compound 77] yielded an activation at 10 µM of 30 to 50%.
Regarding `Cc1ccc(OC2CCC23CN(C(=O)Cn2cc(NC(=O)C4CC(Oc5c(F)cncc5C(C)C)C4)cn2)C3)cc1` (stereo not drawn) [Compound 163], the activation at 10 µM is at least 50%.
Then `CN(C(=O)Cn1cc(NC(=O)CCOc2ccccc2)cn1)c1ccc(OC2CCC(C)(C)CC2)c(F)c1` [Compound 119], with under 30%; and `Cc1ccc(OCCN(C)C(=O)Cn2cc(NC(=O)C3CNc4cccc(F)c4O3)cn2)cc1` (stereo not drawn) [Compound 127], with 30 to 50%; and `Cc1ccc(OC2CCC23CN(C(=O)Cn2cc(NC(=O)CCNc4nccc(F)n4)cn2)C3)cc1` (stereo not drawn) [Compound 134], with under 30%.
In turn, `Cc1ccc(OCCN(C)C(=O)Cn2cc(NC(=O)c3ccc(Oc4ccccc4)cc3)cn2)cc1` [Compound 3] registered an activation at 10 µM of under 30%.
With `Cc1ccc(OC2CCCN(C(=O)Cn3cc(NC(=O)CCOc4cccnc4C(F)(F)F)cn3)C2)cc1` (stereo not drawn) [Compound 91], the activation at 10 µM is under 30%.
As for `O=C(Nc1cnn(CC(=O)N2CCC[C@H](Oc3ccc(C(F)(F)F)cn3)C2)c1)[C@@H]1COc2ccccc2O1` [Compound 189], the figure is under 30%.
`Cc1ccc(OCCN(C)C(=O)Cn2cc(NC(=O)C3COc4ccccc4O3)cn2)cc1` (stereo not drawn) [Compound 154] displayed an activation at 10 µM of at least 50%.
Then `Cc1ccc(O[C@H]2CCCN(C(=O)Cn3cc(NC(=O)CCOc4ccccc4F)cn3)C2)cc1` [Compound 71], with at least 50%; and `Cc1ccc(OC2(C)CCCN(C(=O)Cn3cc(NC(=O)CCOc4ccccc4F)cn3)C2)c(N)c1` (stereo not drawn) [Compound 69, N-(1-(2-(3-(2-amino-4-methylphenoxy)-3-methylpiperidin-1-yl)-2-oxoethyl)-1H-pyrazol-4-yl)-3-(2-fluorophenoxy)propanamide], with under 30%; and `Cc1ccc(OC2CCC23CN(C(=O)Cn2cc(NC(=O)CCNc4ccnc(F)n4)cn2)C3)cc1` (stereo not drawn) [Compound 177], with at least 50%.
